In ChEMBL document CHEMBL2010646, “Small molecule inhibitors of the HPV16-E6 interaction with caspase 8” (Bioorg Med Chem Lett, 2012):
The source made the active and inactive calls. No cut-off for these calls is given here.

Experiments:
[1] = target: Protein E6 (Human papillomavirus 16) (UniProt P03126); assay: Inhibition of GST-tagged Human papillomavirus 16 protein E6 interaction with His-tagged human caspase 8 expressed in Escherichia coli at 20 nM to 20 uM after 1 hr incubation followed by overnight incubation by Alpha screening technique
Caspase-8 (Homo sapiens) = Caspase-8 (Homo sapiens) (UniProt Q14790); assay: Inhibition of GST-tagged human caspase 8 interaction with His-tagged human caspase 8 expressed in Escherichia coli at 0.1 to 10 uM after 1 hr followed by overnight incubation by bead-based binding assay
Protein E6 = Protein E6 (Human papillomavirus 16, UniProt P03126); assay: (§1) Inhibition of GST-tagged Human papillomavirus 16 protein E6 interaction with His-tagged human caspase 8 expressed in Escherichia coli after 1 hr incubation followed by overnight incubation by Alpha screening technique
[2] = target: Protein E6 (Human papillomavirus 16) (UniProt P03126); assay: Inhibition of GST-tagged Human papillomavirus 16 protein E6 interaction with His-tagged human FADD expressed in Escherichia coli after 1 hr incubation followed by overnight incubation by Alpha screening technique
[3] = target: Protein E6 (Human papillomavirus 16) (UniProt P03126); assay: as §1

Caspase-8 (Homo sapiens), sequence (Q14790 217-374 limits assumed): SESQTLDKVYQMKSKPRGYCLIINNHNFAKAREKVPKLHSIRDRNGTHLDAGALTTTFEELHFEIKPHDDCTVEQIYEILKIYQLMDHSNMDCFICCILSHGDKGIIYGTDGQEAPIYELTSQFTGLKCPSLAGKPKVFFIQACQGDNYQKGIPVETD
Caspase-8 (Homo sapiens), sequence (Q14790 385-479 limits assumed): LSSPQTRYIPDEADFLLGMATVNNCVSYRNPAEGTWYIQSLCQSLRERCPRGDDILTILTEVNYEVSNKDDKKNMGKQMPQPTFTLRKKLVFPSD
Protein E6 (Human papillomavirus 16), sequence (P03126 whole entry): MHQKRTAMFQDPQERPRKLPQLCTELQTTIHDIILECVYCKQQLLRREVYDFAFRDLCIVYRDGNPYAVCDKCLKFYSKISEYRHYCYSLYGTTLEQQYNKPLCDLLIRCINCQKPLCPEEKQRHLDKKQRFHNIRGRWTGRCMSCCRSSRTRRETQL
Protein E6, sequence (P03126 whole entry): as above

| SMILES | inhibition [1] | other results |
| --- | --- | --- |
| O=C(O)Cc1cc(Cl)c2oc(-c3ccccc3)c(O)c(=O)c2c1 | inactive |  |
| COc1ccc2c(=O)c(O)c(-c3ccccc3)oc2c1 | inactive |  |
| O=c1c(O)c(-c2cc(O)c(O)c(O)c2)oc2cc(O)cc(O)c12 [MYRICETIN] |  | inhibition (Caspase-8 (Homo sapiens)): inactive; IC50 (Protein E6): 0.85 µM |
| O=c1c(O)c(-c2ccc(O)c(O)c2)oc2cc(O)ccc12 | inactive |  |
| COc1cc(O)c2c(=O)c(O)c(-c3ccc(O)c(O)c3)oc2c1 | inactive |  |
| O=c1c(O)c(-c2ccccc2O)oc2cc(O)cc(O)c12 | inactive |  |
| O=c1c(O)c(-c2ccc(O)c(O)c2)oc2cc(O)cc(O)c12 [QUERCETIN] |  | IC50 (Protein E6): > 20 µM |
| O=c1c(O)c(-c2ccc(O)cc2O)oc2cc(O)cc(O)c12 [MORIN] |  | inhibition (Caspase-8 (Homo sapiens)): inactive; IC50 (Protein E6): 4 µM |
| O=c1c(O)c(-c2ccccc2)oc2cc(O)cc(O)c12 | Active |  |
| O=c1cc(-c2ccc(O)cc2)oc2cc(O)cc(O)c12 | inactive |  |
| O=c1cc(-c2ccccc2)oc2ccccc12 | inactive |  |
| CC(C)c1ccc(-c2oc3c(Cl)cc(CC(=O)O)cc3c(=O)c2O)cc1 | inactive |  |
| COc1cc(-c2oc3cc(O)ccc3c(=O)c2O)ccc1O | inactive |  |
| O=c1c(O)c(-c2ccccc2)oc2ccccc12 | inactive |  |
| O=C(O)Cc1cc(Cl)c2oc(-c3ccc(Cl)cc3)c(O)c(=O)c2c1 | inactive |  |
| COc1cc(-c2oc3cc(O)cc(O)c3c(=O)c2O)ccc1O | inactive |  |
| O=c1c(O)c(-c2ccc(O)cc2)oc2cc(O)cc(O)c12 [KAEMPFEROL] |  | inhibition [2]: Dose-dependent effect; inhibition [3]: Dose-dependent effect; IC50 (Protein E6): > 20 µM |
| O=c1c(O)c(-c2ccccc2)oc2cc(O)ccc12 | inactive |  |
| O=c1c(O)c(-c2ccccc2)oc2ccc(O)cc12 | inactive | inhibition (Caspase-8 (Homo sapiens)): inactive |
